{"source": "patent US20040033210A1", "about": "“Enhancement of antibody-cytokine fusion protein mediated immune responses by co-administration with prostaglandin inhibitor” (EMD Lexigen Research Center Corp., priority 1998, published 2004)", "test_system": "LLC-EpCAM subcutaneous tumors", "test": "Combination therapy of LLC-Ep subcutaneous tumors in C57BL/6 mice with indomethacin (Example 5), tumor volume", "type": "in vivo", "conditions": "after treatment for 22 days; fusion protein 25 μg/mouse i.v., 5 daily injections; indomethacin 20 μg/mL in drinking water throughout", "procedure": "FIG. 5 is a line graph depicting the effect on subcutaneous tumors of an antibody-cytokine fusion protein administered either alone or in combination with indomethacin. The size of LLC-EpCAM subcutaneous tumors were monitored in mice treated with phosphate buffered saline (closed diamonds), a huKS-huγ1-huIL2 fusion protein (closed squares), indomethocin (closed triangles), and a combination of the huKS-huγ1-huIL2 fusion protein and indomethocin (crosses).\nFemale C57lB6 mice were injected subcutaneously in the mid-back with LLC-Ep cells (5×10^5 per mouse) grown in cell culture. After about two weeks, animals with palpable tumors in the range of 150-400 mm^3 were divided into four groups, with an equal distribution of tumor sizes between the groups. […] Tumor growth was monitored by volumetric measurements until animals in the control group became moribund and were euthanized. Tumor volumes were measured with calipers and calculated as V=4 π/3 (0.5L×0.5W×0.5H), where L is the length, W is the width, and H is the height of the tumor. […]\nWhen the tumors reached 100-200 mm^3 in size (about 7 to 14 days), the mice were randomized into four groups, 5 mice per group. […] Tumor volumes were measured as described in Example 3. […]", "data": [{"smiles": "COc1ccc2c(c1)c(CC(=O)O)c(C)n2C(=O)c1ccc(Cl)cc1", "note": "[indomethacin]", "values": [{"measurement": "T/C ratio", "value": 0.60}]}]}
